The values that follow come from patent US20250145665A1, “MACROCYCLIC PEPTIDES USEFUL AS MODULATORS OF TNF ALPHA” (Bristol-Myers Squibb Company, priority 2023, published 2025).

The structures appear in SMILES notation. Positions of bridges follow the written chain, without caps; N, C: chain ends. Non-standard residues stand in square brackets, D forms with d. Residues, ends and D or L forms follow the SMILES beside them. ξ: configuration not given here. Bip = N[C@@H](Cc1ccc(-c2ccccc2)cc1)C(=O)O; hhPhe = N[C@@H](CCCc1ccccc1)C(=O)O; h4Pal = N[C@@H](CCc1ccncc1)C(=O)O; 4Pal = N[C@@H](Cc1ccncc1)C(=O)O; ξIle = CC[C@H](C)C(N)C(=O)O; Orn = NCCC[C@H](N)C(=O)O; Sar = CNCC(=O)O

This test deals with TNFα (Homo sapiens, UniProt P01375). As to the kind of experiment: TNF-Induced HEK-Blue Assay. Type of test: cell-based. To be noted: HEK-Blue-CD40L cells, NF-kB-driven secreted alkaline phosphatase reporter; TNFα 0.5 ng/ml; 18 h; read-out: TNF induced HEK-Blue assay IC50 value.
TNFα, sequence (P01375 77-233 limits assumed): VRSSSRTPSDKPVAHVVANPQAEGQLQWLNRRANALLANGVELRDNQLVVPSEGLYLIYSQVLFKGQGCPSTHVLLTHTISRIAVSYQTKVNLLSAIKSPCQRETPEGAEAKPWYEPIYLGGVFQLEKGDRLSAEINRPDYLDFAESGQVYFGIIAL
The term IC50 denotes the concentration needed to halve the response being measured. As to `CC(C)C[C@@H]1NC(=O)[C@H](CCCNC(=N)N)NC(=O)[C@H](C(C)C)NC(=O)[C@@H]2CCCN2C(=O)[C@H](C(C)C)NC(=O)[C@H](CCCNC(=N)N)NC(=O)[C@H](CC(=O)O)NC(=O)[C@@H]2CCCN2C(=O)CN(C)C(=O)[C@H](Cc2ccc(-c3ccccc3)cc2)NC(=O)[C@H](Cc2ccc(-c3ccccc3)cc2)NC(=O)[C@H](Cc2ccccc2)NC(=O)CSC[C@@H](C(=O)NCC(N)=O)NC1=O` [Example 1] ({CH2CO}-F[Bip][Bip][Sar]PDRVPVRLCG-NH2; thioether N-13), the IC50 is 200 to 2000 nM.

On to `CC(C)C[C@@H]1NC(=O)[C@H](CCCN)NC(=O)[C@H](C(C)C)NC(=O)[C@@H]2CCCN2C(=O)[C@H](C(C)C)NC(=O)[C@H](CCCNC(=N)N)NC(=O)[C@H](CC(=O)O)NC(=O)[C@@H]2CCCN2C(=O)CN(C)C(=O)[C@H](Cc2ccc(-c3ccccc3)cc2)NC(=O)[C@H](Cc2ccc(-c3ccccc3)cc2)NC(=O)[C@H](Cc2ccccc2)NC(=O)CSC[C@@H](C(=O)NCC(N)=O)NC1=O` [Example 2] ({CH2CO}-F[Bip][Bip][Sar]PDRVPV[Orn]LCG-NH2; thioether N-13), for which the IC50 was 200 to 2000 nM. Next, `CC(C)C[C@@H]1NC(=O)[C@H](CCCCN)NC(=O)[C@H](C(C)C)NC(=O)[C@@H]2CCCN2C(=O)[C@H](C(C)C)NC(=O)[C@H](CCCNC(=N)N)NC(=O)[C@H](CC(=O)O)NC(=O)[C@@H]2CCCN2C(=O)CN(C)C(=O)[C@H](Cc2ccc(-c3ccccc3)cc2)NC(=O)[C@H](Cc2ccc(-c3ccccc3)cc2)NC(=O)[C@H](Cc2ccccc2)NC(=O)CSC[C@@H](C(=O)NCC(N)=O)NC1=O` [Example 3] ({CH2CO}-F[Bip][Bip][Sar]PDRVPVKLCG-NH2; thioether N-13): 200 to 2000 nM. Regarding `CC(C)C[C@@H]1NC(=O)[C@H](CCCNC(=N)N)NC(=O)[C@H](C(C)C)NC(=O)[C@@H]2CCCN2C(=O)[C@H](C(C)C)NC(=O)[C@H](CCCNC(=N)N)NC(=O)[C@H](CC(=O)O)NC(=O)[C@@H]2CCCN2C(=O)CN(C)C(=O)[C@H](Cc2ccc(-c3ccccc3)cc2)NC(=O)[C@H](Cc2ccc(-c3ccccc3)cc2)NC(=O)[C@H](Cc2ccc(O)cc2)NC(=O)CSC[C@@H](C(=O)NCC(N)=O)NC1=O` [Example 4] ({CH2CO}-Y[Bip][Bip][Sar]PDRVPVRLCG-NH2; thioether N-13), the IC50 was in the range of 200 to 2000 nM.

For `CC(C)C[C@@H]1NC(=O)[C@H](CCCNC(=N)N)NC(=O)[C@H](C(C)C)NC(=O)[C@@H]2CCCN2C(=O)[C@H](C(C)C)NC(=O)[C@H](CCCNC(=N)N)NC(=O)[C@H](CC(=O)O)NC(=O)[C@@H]2CCCN2C(=O)CN(C)C(=O)[C@H](Cc2ccc(-c3ccccc3)cc2)NC(=O)[C@H](Cc2ccc(-c3ccccc3)cc2)NC(=O)[C@H](Cc2c[nH]c3ccccc23)NC(=O)CSC[C@@H](C(=O)NCC(N)=O)NC1=O` [Example 5] ({CH2CO}-W[Bip][Bip][Sar]PDRVPVRLCG-NH2; thioether N-13), the IC50 was in the range of 200 to 2000 nM. Next, `CC(C)C[C@@H]1NC(=O)[C@H](CCCNC(=N)N)NC(=O)[C@H](C(C)C)NC(=O)[C@@H]2CCCN2C(=O)[C@H](C(C)C)NC(=O)[C@H](CCCNC(=N)N)NC(=O)[C@H](CC(=O)O)NC(=O)[C@@H]2CCCN2C(=O)CN(C)C(=O)[C@H](Cc2ccc(-c3ccccc3)cc2)NC(=O)[C@H](Cc2ccc(-c3ccccc3)cc2)NC(=O)[C@H](CCCCN)NC(=O)CSC[C@@H](C(=O)NCC(N)=O)NC1=O` [Example 6] ({CH2CO}-K[Bip][Bip][Sar]PDRVPVRLCG-NH2; thioether N-13): 200 to 2000 nM.

As for `CC[C@H](C)C1NC(=O)CSC[C@@H](C(=O)NCC(N)=O)NC(=O)[C@H](CC(C)C)NC(=O)[C@H](CCCNC(=N)N)NC(=O)[C@H](C(C)C)NC(=O)[C@@H]2CCCN2C(=O)[C@H](C(C)C)NC(=O)[C@H](CCCNC(=N)N)NC(=O)[C@H](CC(=O)O)NC(=O)[C@@H]2CCCN2C(=O)CN(C)C(=O)[C@H](Cc2ccc(-c3ccccc3)cc2)NC(=O)[C@H](Cc2ccc(-c3ccccc3)cc2)NC1=O` (stereo partly shown) [Example 7] ({CH2CO}-[ξIle][Bip][Bip][Sar]PDRVPVRLCG-NH2; thioether N-13), the IC50 was in the range of 200 to 2000 nM. Next, `CC(C)C[C@@H]1NC(=O)CSC[C@@H](C(=O)NCC(N)=O)NC(=O)[C@H](CC(C)C)NC(=O)[C@H](CCCNC(=N)N)NC(=O)[C@H](C(C)C)NC(=O)[C@@H]2CCCN2C(=O)[C@H](C(C)C)NC(=O)[C@H](CCCNC(=N)N)NC(=O)[C@H](CC(=O)O)NC(=O)[C@@H]2CCCN2C(=O)CN(C)C(=O)[C@H](Cc2ccc(-c3ccccc3)cc2)NC(=O)[C@H](Cc2ccc(-c3ccccc3)cc2)NC1=O` [Example 8] ({CH2CO}-L[Bip][Bip][Sar]PDRVPVRLCG-NH2; thioether N-13): 200 to 2000 nM; `CC(C)C[C@@H]1NC(=O)[C@H](CCCNC(=N)N)NC(=O)[C@H](C(C)C)NC(=O)[C@@H]2CCCN2C(=O)[C@H](C(C)C)NC(=O)[C@H](CCCNC(=N)N)NC(=O)[C@H](CC(=O)O)NC(=O)[C@@H]2CCCN2C(=O)CN(C)C(=O)[C@H](Cc2ccc(-c3ccccc3)cc2)NC(=O)[C@H](Cc2ccc(-c3ccccc3)cc2)NC(=O)[C@H](C(C)C)NC(=O)CSC[C@@H](C(=O)NCC(N)=O)NC1=O` [Example 9] ({CH2CO}-V[Bip][Bip][Sar]PDRVPVRLCG-NH2; thioether N-13): 200 to 2000 nM; `CC(C)C[C@@H]1NC(=O)[C@H](CCCNC(=N)N)NC(=O)[C@H](C(C)C)NC(=O)[C@@H]2CCCN2C(=O)[C@H](C(C)C)NC(=O)[C@H](CCCNC(=N)N)NC(=O)[C@H](CC(=O)O)NC(=O)[C@@H]2CCCN2C(=O)CN(C)C(=O)[C@H](Cc2ccc(-c3ccccc3)cc2)NC(=O)[C@H](Cc2ccc(-c3ccccc3)cc2)NC(=O)[C@H](CCc2ccncc2)NC(=O)CSC[C@@H](C(=O)NCC(N)=O)NC1=O` [Example 10] ({CH2CO}-[h4Pal][Bip][Bip][Sar]PDRVPVRLCG-NH2; thioether N-13): 200 to 2000 nM.

In the case of `CC(C)C[C@@H]1NC(=O)[C@H](CCCNC(=N)N)NC(=O)[C@H](C(C)C)NC(=O)[C@@H]2CCCN2C(=O)[C@H](C(C)C)NC(=O)[C@H](CCCNC(=N)N)NC(=O)[C@H](CC(=O)O)NC(=O)[C@@H]2CCCN2C(=O)CN(C)C(=O)[C@H](Cc2ccc(-c3ccccc3)cc2)NC(=O)[C@H](Cc2ccc(-c3ccccc3)cc2)NC(=O)[C@H](Cc2ccncc2)NC(=O)CSC[C@@H](C(=O)NCC(N)=O)NC1=O` [Example 11] ({CH2CO}-[4Pal][Bip][Bip][Sar]PDRVPVRLCG-NH2; thioether N-13), the IC50 was 200 to 2000 nM. `CC(C)C[C@@H]1NC(=O)[C@H](CCCNC(=N)N)NC(=O)[C@H](C(C)C)NC(=O)[C@@H]2CCCN2C(=O)[C@H](C(C)C)NC(=O)[C@H](CCCNC(=N)N)NC(=O)[C@H](CC(=O)O)NC(=O)[C@@H]2CCCN2C(=O)CN(C)C(=O)[C@H](Cc2ccc(-c3ccccc3)cc2)NC(=O)[C@H](Cc2ccc(-c3ccccc3)cc2)NC(=O)[C@H](CCCc2ccccc2)NC(=O)CSC[C@@H](C(=O)NCC(N)=O)NC1=O` [Example 12] ({CH2CO}-[hhPhe][Bip][Bip][Sar]PDRVPVRLCG-NH2; thioether N-13): the IC50 lay within 200 to 2000 nM.

Regarding `CC(C)C[C@@H]1NC(=O)[C@H](CCCNC(=N)N)NC(=O)[C@H](C(C)C)NC(=O)[C@@H]2CCCN2C(=O)[C@H](Cc2ccc(O)cc2)NC(=O)[C@H](CCCNC(=N)N)NC(=O)[C@H](CC(=O)O)NC(=O)[C@@H]2CCCN2C(=O)CN(C)C(=O)[C@H](Cc2ccc(-c3ccccc3)cc2)NC(=O)[C@H](Cc2ccc(-c3ccccc3)cc2)NC(=O)[C@H](Cc2ccccc2)NC(=O)CSC[C@@H](C(=O)NCC(N)=O)NC1=O` [Example 15] ({CH2CO}-F[Bip][Bip][Sar]PDRYPVRLCG-NH2; thioether N-13), the IC50 is 200 to 2000 nM.
